According to patent US20240239771A1, “BACTERIAL EFFLUX PUMP INHIBITORS” (priority 2020, published 2024):
Structures can show the parent of a compound that is named as a salt.

Legend:
[1] = tested on: Pseudomonas aeruginosa ATCC 27853; assay: Intrinsic MIC assay (CLSI broth microdilution); type: cell-based; details: ATCC27853, read-out: Intrinsic MIC of Compound
Method: MIC assays were conducted in accordance with Clinical and Laboratory Standards Institute (CLSI) guidelines for broth microdilution. A 96-well plate containing cation-adjusted Mueller-Hinton (CAMH broth with 2-fold serial dilution of compounds was inoculated with log-phase bacterial at 5×10^5 CFU/mL. The final volume in each well was 100 μL. Each compound was tested in duplicate. The microtiter plates were incubated in an aerobic environment for 18 hours at 37° C. Then the bacterial growth was tested by reading the plate with a VersaMax plate reader (Molecular Devices, Inc.) at 600 nm. The MIC was defined as the lowest compound concentration that inhibited 90% of bacteria growth.
The intrinsic MIC of the experimental EPIs was tested with the method described. The 2-fold serial dilution begins with 100 μg/mL of tested compound in the first column of the 96-well plates. The following Gram-negative bacterial strain was included in these assays: Pseudomonas aeruginosa ATCC 27853.

[2] = tested on: Pseudomonas aeruginosa ATCC 27853; assay: Standard EPI assay: MIC of test antibiotic in absence and presence of EPI; type: cell-based; details: for Enhanced Antibiotic's Activity (fold increase), Ceftazidime: ceftazidime with compound at 6.25 μg/mL, relative to MIC without EPI (2 μg/mL); for Enhanced Antibiotic's Activity (fold increase), Doxycycline: doxycycline with compound at 6.25 μg/mL, relative to MIC without EPI (32 μg/mL); for Enhanced Antibiotic's Activity (fold increase), Levofloxacin: levofloxacin with compound at 6.25 μg/mL, relative to MIC without EPI (1 μg/mL); for MIC of antibiotic in the absence of EPI: antibiotic alone, P. aeruginosa ATCC 27853
Method: The EPI assay for the purposes of these studies represents a MIC assay in which the MIC of the antibiotic against the bacteria is tested in the presence of an experimental efflux pump inhibitor (EPI). The highest concentration of the EPI present in the assay typically is ½ of the intrinsic MIC of the compound. If the intrinsic MIC of the EPI is greater than 100 μg/mL, the EPI assay was tested with 50 μg/mL. Using serial dilutions of the EPI, its enhancement of antibiotic activity was then evaluated. The relative EPI activity was decided by comparing the MIC of the antibiotic in the presence of the EPI compound with the intrinsic MIC of the antibiotic alone.
The impact of the EPIs on the MIC values of three test antibiotics (levofloxacin, ceftazidime and doxycycline) against P. aeruginosa ATCC 27853 were evaluated using our standard EPI assay. All three antibiotics levofloxacin, ceftazidime and doxycycline are known substrates of efflux pumps in P. aeruginosa, and are thus well-suited to be test antibiotics to assay for EPI activity.
In our standard EPI assay, the MIC of the test antibiotic is determined in the absence and presence of sub-inhibitory concentrations of the EPI. […] The MIC of levofloxacin against P. aeruginosa ATCC 27853 in the absence of EPI is 1 μg/mL. […] Similarly, the MIC of ceftazidime against P. aeruginosa ATCC 27853 in the absence of EPI is 2 μg/mL. In the presence of 6.25 μg/mL of the Example 4, the MIC of ceftazidime was reduced to 0.5 μg/mL, a 4-fold reduction. […] For all the examples in Table 1, the potentiation activities are determined at 6.25 μg/mL.

SMILES | MIC [1] [µg/mL] | Enhanced Antibiotic's Activity (fold increase), Ceftazidime [2] [fold] | Enhanced Antibiotic's Activity (fold increase), Doxycycline [2] [fold] | Enhanced Antibiotic's Activity (fold increase), Levofloxacin [2] | MIC of antibiotic in the absence of EPI [2] [µg/mL]
NCCOC[C@H](N)CNC(=O)c1cc2ccc(-c3ccc(F)cc3)cc2[nH]1 [Example 31, (R)—N-(2-amino-3-(2-aminoethoxy)propyl)-6-(4-fluorophenyl)-1H-indole-2-carboxamide hydrogen chloride salt] | > 200 | 4 | 32 | 8 fold | 
NC[C@H]1CN[C@H](CNC(=O)c2[nH]c3ccccc3c2-c2ccc(F)cc2)C1=O [Example 25, N-(((2R,4S)-4-(aminomethyl)-3-oxopyrrolidin-2-yl)methyl)-3-(4-fluorophenyl)-1H-indole-2-carboxamide hydrogen chloride salt] | > 100 | 1 | 1 | 1 (1) fold | 
NC[C@H]1CN[C@H](CNC(=O)c2[nH]c3ccccc3c2-c2ccc(F)cc2)[C@H]1O [Example 23, N-(((2R,3S,4S)-4-(aminomethyl)-3-hydroxypyrrolidin-2-yl)methyl)-3-(4-fluorophenyl)-1H-indole-2-carboxamide hydrogen chloride salt] | > 100 | 2 | 16 | 8 fold | 
NCC(O)C[C@H](N)CNC(=O)c1[nH]c2ccc(F)cc2c1-c1ccccc1 (stereo partly drawn) [Example 13, N-((2S)-2,5-diamino-4-hydroxypentyl)-5-fluoro-3-phenyl-1H-indole-2-carboxamide hydrogen chloride salt] | > 100 | 2 | 32 | 32 fold | 
NCC(O)C[C@H](N)CNC(=O)c1[nH]c2ccccc2c1-c1ccccc1 (stereo partly drawn) [Example 12, N-((2S)-2,5-diamino-4-hydroxypentyl)-3-phenyl-1H-indole-2-carboxamide hydrogen chloride salt] | > 100 | 2 | 32 | 16 fold | 
N#Cc1ccc(-c2c(C(=O)NC[C@@H](N)COCCN)[nH]c3ccc(F)cc23)cc1 [Example 20, (R)—N-(2-amino-3-(2-aminoethoxy)propyl)-3-(4-cyanophenyl)-5-fluoro-1H-indole-2-carboxamide hydrogen chloride salt] | > 100 | 2 | 16 | 16 fold | 
N#Cc1ccc(-c2c(C(=O)NC[C@@H](N)CC(O)CN)[nH]c3c(F)cccc23)cc1 (stereo partly drawn) [Example 14, 3-(4-cyanophenyl)-N-((2S)-2,5-diamino-4-hydroxypentyl)-7-fluoro-1H-indole-2-carboxamide hydrogen chloride salt] | > 100 | 1 | 16 | 32 fold | 
NCCOC[C@H](N)CNC(=O)c1[nH]c2ccccc2c1-c1ccccc1 [Example 21, (R)—N-(2-amino-3-(2-aminoethoxy)propyl)-3-phenyl-1H-indole-2-carboxamide hydrogen chloride salt] | > 100 | 1 | 16 | 4 fold | 
C[C@H]1COc2c(N3CCN(C)CC3)c(F)cc3c(=O)c(C(=O)O)cn1c23 [levofloxacin, Levofloxacin, reference compound] |  |  |  |  | 1
NCCC(O)[C@@H](N)CNC(=O)c1[nH]c2ccccc2c1-c1ccccc1F (stereo partly drawn) [Example 7, N-((2S)-2,5-diamino-3-hydroxypentyl)-3-(2-fluorophenyl)-1H-indole-2-carboxamide hydrogen chloride salt] | > 100 | 1 | 4 | 2 fold | 
C[C@H]1c2cccc(O)c2C(=O)C2=C(O)[C@]3(O)C(=O)C(C(N)=O)=C(O)[C@@H](N(C)C)[C@@H]3[C@@H](O)[C@@H]21 [doxycycline, Doxycycline, reference compound] |  |  |  |  | 32
NCC(O)C[C@H](N)CNC(=O)c1[nH]c2ccc(F)cc2c1-c1ccccc1Cl (stereo partly drawn) [Example 8, 3-(2-chlorophenyl)-N-((2S)-2,5-diamino-4-hydroxypentyl)-5-fluoro-1H-indole-2-carboxamide hydrogen chloride salt] | > 100 | 2 | 16 | 16 fold | 
NCCOC[C@H](N)CNC(=O)c1[nH]c2ccc(F)cc2c1C1CCCCC1 [Example 22, (R)—N-(2-amino-3-(2-aminoethoxy)propyl)-3-cyclohexyl-5-fluoro-1H-indole-2-carboxamide hydrogen chloride salt] | 25 |  |  | 32 fold | 
NC[C@H]1CN[C@H](CNC(=O)c2[nH]c3ccc(F)cc3c2-c2ccccc2)[C@H]1O [Example 24, N-(((2R,3S,4S)-4-(aminomethyl)-3-hydroxypyrrolidin-2-yl)methyl)-5-fluoro-3-phenyl-1H-indole-2-carboxamide hydrogen chloride salt] | > 100 |  |  | 16 fold | 
Cc1c(C(=O)NC[C@@H](N)COCCN)[nH]c2cccc(-c3ccc(F)cc3)c12 [Example 33, (R)—N-(2-amino-3-(2-aminoethoxy)propyl)-4-(4-fluorophenyl)-3-methyl-1H-indole-2-carboxamide hydrogen chloride salt] | 100 |  | 128 | 32 fold | 
NCC(CO)C[C@@H](N)CNC(=O)c1[nH]c2ccccc2c1-c1ccc(F)cc1 (stereo partly drawn) [Example 16, N-((2R)-2,5-diamino-4-(hydroxymethyl)pentyl)-3-(4-fluorophenyl)-1H-indole-2-carboxamide hydrogen chloride salt] | > 100 | 2 | 32 | 16 fold | 
NCCC[C@H](N)COC[C@H](N)CNC(=O)c1[nH]c2ccccc2c1-c1ccc(F)cc1 [Example 34, N—((R)-2-amino-3-(((S)-2,5-diaminopentyl)oxy)propyl)-3-(4-fluorophenyl)-1H-indole-2-carboxamide hydrogen chloride salt] | > 200 |  | 32 | 8 fold | 
NCC(O)C[C@H](N)CNC(=O)c1[nH]c2ccccc2c1-c1ccc(F)cc1 (stereo partly drawn) [Example 10, 3-(4-fluorophenyl)-N-((2S)-2,5-diamino-4-hydroxypentyl)-1H-indole-2-carboxamide hydrogen chloride salt] | 100 | 4 | 32 | 16 fold | 
CC(C)(O/N=C(\C(=O)N[C@@H]1C(=O)N2C(C(=O)[O-])=C(C[n+]3ccccc3)CS[C@H]12)c1csc(N)n1)C(=O)O [ceftazidime, Ceftazidime, reference compound] |  |  |  |  | 2
NCCOC[C@H](N)CNC(=O)c1[nH]c2ccccc2c1-c1ccc(F)cc1 [Example 19, (R)—N-(2-amino-3-(2-aminoethoxy)propyl)-3-(4-fluorophenyl)-1H-indole-2-carboxamide hydrogen chloride salt] | > 100 | 2 | 16 | 16 fold | 
